Experimental data taken from ChEMBL document CHEMBL1141497, “Discovery of novel FMS kinase inhibitors as anti-inflammatory agents” (Bioorg Med Chem Lett, 2008).
Each block holds one compound with its values, some of them ahead of it.

What was measured:
[1] = biological target: Macrophage colony-stimulating factor 1 receptor (Homo sapiens, UniProt P07333); assay: biochemical
[2] = Cmax in CD1 mouse at 2 mg/kg, iv and 10 mg/kg, po; type: ADME, organism-based; conditions: in vivo
[3] = Volume of distribution in CD1 mouse at 2 mg/kg, iv and 10 mg/kg, po; type: ADME, organism-based; conditions: in vivo, read-out: Vdss
[4] = Oral bioavailability in CD1 mouse at 10 mg/kg; type: ADME, organism-based; conditions: in vivo
Macrophage = assay: Inhibition of FMS-induced proliferation of bone marrow derived human macrophages; type: functional, cell-based
[5] = Half life in CD1 mouse at 2 mg/kg, iv and 10 mg/kg, po; type: ADME, organism-based; conditions: in vivo
[6] = biological target: High affinity nerve growth factor receptor (Homo sapiens, UniProt P04629); assay: Inhibition of TrkA after 27 mins by fluorescence polarization
Sequence of High affinity nerve growth factor receptor (P04629 whole entry): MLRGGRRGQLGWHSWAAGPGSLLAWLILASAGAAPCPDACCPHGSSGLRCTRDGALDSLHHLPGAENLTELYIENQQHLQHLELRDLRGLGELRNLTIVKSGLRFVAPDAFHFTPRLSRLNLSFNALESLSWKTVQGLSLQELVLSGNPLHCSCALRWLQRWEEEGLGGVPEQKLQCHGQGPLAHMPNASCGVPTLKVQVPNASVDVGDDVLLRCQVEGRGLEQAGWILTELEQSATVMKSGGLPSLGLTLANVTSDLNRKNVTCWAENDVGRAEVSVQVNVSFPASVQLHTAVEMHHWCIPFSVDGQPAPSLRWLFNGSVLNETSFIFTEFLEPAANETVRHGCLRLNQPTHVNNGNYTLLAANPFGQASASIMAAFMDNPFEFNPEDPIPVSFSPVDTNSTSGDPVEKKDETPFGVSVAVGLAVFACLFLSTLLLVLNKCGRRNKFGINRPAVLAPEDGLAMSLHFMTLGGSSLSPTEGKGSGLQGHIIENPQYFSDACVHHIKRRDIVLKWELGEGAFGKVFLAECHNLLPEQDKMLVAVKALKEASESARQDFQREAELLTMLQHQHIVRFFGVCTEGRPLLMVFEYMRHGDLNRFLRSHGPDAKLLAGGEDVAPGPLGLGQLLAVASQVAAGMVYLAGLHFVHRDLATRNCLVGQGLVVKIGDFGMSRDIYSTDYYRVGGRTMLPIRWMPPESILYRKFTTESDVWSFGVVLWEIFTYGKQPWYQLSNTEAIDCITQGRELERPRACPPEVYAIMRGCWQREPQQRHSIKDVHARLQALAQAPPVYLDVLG

[7] = biological target: Mast/stem cell growth factor receptor Kit (Homo sapiens, UniProt P10721); assay: Inhibition of Kit after 30 mins by fluorescence polarization
Sequence of Mast/stem cell growth factor receptor Kit (P10721 whole entry): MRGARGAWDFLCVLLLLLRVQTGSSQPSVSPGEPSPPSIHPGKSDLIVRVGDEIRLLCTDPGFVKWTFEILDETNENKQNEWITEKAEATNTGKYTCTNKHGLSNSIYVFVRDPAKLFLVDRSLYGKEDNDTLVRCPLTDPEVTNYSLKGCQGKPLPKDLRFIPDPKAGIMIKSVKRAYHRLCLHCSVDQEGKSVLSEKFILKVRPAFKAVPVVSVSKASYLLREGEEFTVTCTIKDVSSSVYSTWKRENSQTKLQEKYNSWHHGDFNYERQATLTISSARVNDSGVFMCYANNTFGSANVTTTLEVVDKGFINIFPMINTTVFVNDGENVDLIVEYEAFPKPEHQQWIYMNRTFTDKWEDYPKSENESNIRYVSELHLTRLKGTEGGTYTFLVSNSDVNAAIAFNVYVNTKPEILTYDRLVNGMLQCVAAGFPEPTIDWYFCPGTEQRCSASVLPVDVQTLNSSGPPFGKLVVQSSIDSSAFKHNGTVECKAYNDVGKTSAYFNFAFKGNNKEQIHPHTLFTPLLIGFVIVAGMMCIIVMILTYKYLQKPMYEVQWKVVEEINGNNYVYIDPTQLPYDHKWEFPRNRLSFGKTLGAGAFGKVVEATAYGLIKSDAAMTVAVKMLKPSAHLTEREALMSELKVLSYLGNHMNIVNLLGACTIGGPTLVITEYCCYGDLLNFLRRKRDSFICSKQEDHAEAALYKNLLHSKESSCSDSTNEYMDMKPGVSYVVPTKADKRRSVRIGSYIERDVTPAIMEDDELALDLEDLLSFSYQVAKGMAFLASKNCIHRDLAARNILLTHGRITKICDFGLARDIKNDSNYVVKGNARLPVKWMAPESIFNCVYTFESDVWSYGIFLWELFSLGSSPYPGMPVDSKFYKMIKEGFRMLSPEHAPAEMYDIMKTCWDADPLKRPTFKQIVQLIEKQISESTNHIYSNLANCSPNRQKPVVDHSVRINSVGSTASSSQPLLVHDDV

Mus musculus [8] = assay: Reduction in progression of collagen-induced arthritis scores in mouse CIA model at 30 mg/kg, po bid; type: functional; parameters: scale not given: the % may be the effect or the level left
Mus musculus [9] = species: Mus musculus; assay: Reduction in pannus formation in mouse CIA model BID for 14 days; type: functional; parameters: scale not given: the % may be the effect or the level left
Mus musculus [10] = assay: Reduction in progression of collagen-induced arthritis scores in mouse CIA model at 5 mg/kg, po bid; type: functional; parameters: scale not given: the % may be the effect or the level left
Mus musculus [11] = species: Mus musculus; assay: Reduction in bone destruction in mouse CIA model BID for 14 days; type: functional; parameters: scale not given: the % may be the effect or the level left

Sequence of Macrophage colony-stimulating factor 1 receptor (P07333 whole entry): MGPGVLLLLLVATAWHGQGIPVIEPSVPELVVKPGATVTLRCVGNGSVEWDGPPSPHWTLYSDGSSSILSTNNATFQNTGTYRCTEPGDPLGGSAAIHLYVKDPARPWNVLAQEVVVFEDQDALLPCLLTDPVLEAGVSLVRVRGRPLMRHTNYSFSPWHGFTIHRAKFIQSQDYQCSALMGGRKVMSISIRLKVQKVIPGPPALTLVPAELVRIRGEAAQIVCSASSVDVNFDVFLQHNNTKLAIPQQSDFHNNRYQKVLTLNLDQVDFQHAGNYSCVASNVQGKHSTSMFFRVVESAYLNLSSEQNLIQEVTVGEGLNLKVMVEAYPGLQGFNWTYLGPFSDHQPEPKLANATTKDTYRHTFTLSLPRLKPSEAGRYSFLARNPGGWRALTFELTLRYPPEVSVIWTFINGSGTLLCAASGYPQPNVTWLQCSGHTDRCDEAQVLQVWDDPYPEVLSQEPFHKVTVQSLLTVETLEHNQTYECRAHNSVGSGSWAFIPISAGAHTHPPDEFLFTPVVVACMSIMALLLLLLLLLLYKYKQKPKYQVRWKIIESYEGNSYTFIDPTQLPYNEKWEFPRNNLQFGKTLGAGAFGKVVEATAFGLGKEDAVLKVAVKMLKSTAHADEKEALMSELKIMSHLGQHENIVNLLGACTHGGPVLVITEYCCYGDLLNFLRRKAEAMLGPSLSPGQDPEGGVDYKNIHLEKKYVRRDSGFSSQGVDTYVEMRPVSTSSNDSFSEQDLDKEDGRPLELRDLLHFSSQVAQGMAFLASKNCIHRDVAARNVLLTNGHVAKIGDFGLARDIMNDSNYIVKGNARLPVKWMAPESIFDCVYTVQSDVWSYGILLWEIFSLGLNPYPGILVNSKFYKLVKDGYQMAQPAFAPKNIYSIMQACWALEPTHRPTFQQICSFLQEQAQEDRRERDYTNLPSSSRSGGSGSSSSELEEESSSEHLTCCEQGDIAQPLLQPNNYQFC

SMILES: CC1CCN(c2cc(N3CCN(C)CC3)cnc2NC(=O)c2ccc(C#N)o2)CC1
IC50 [1]: 0.72 µM

SMILES: N#Cc1ccc(C(=O)Nc2ccc(N3CCS(=O)(=O)CC3)cc2N2CCCCC2)o1
IC50 [1]: 0.0007 µM

SMILES: CN1CCN(c2ccc(NC(=O)c3ccc(C#N)o3)c(N3CCOCC3)c2)CC1
IC50 [1]: 0.08 µM
IC50 (Macrophage): 2.8 µM

SMILES: CC1CCN(c2nc(N3CCN(C)CC3)ccc2NC(=O)c2ccc(C#N)o2)CC1
IC50 [1]: 0.01 µM

SMILES: Cc1cnn(-c2ccc(NC(=O)c3ccc(C#N)o3)c(N3CCCCC3)c2)c1
IC50 [1]: 0.064 µM

SMILES: N#Cc1ccc(C(=O)Nc2ccc(-n3ccnc3)cc2N2CCCCC2)o1
IC50 [1]: 0.003 µM

SMILES: CCOc1ccc(NC(=O)c2ccc(C#N)o2)c(N2CCCCC2)c1
IC50 [1]: 0.021 µM

SMILES: CC1CCN(c2cc(N3CCOCC3)ccc2NC(=O)c2ccc(C#N)o2)CC1
IC50 [1]: 0.011 µM

SMILES: CN1CCN(C(=O)N(C)c2ccc(NC(=O)c3ccc(C#N)o3)c(N3CCCCC3)c2)CC1
IC50 [1]: 0.083 µM

SMILES: CC(=O)N1CCN(c2ccc(NC(=O)c3cc(C#N)c[nH]3)c(N3CCC(C)CC3)c2)CC1
IC50 [1]: 0.0007 µM

SMILES: CCN(C)CCCc1ccc(NC(=O)c2ccc(C#N)o2)c(N2CCCCC2)c1
IC50 [1]: 0.052 µM

SMILES: CN1CCN(c2ccc(NC(=O)c3cc(C#N)c[nH]3)c(N3CCCCC3)c2)CC1
IC50 (Macrophage): 0.002 µM

SMILES: CN(c1ccc(NC(=O)c2ccc(C#N)o2)c(N2CCCCC2)c1)S(C)(=O)=O
IC50 [1]: 0.025 µM

SMILES: CS(=O)(=O)Nc1ccc(NC(=O)c2ccc(C#N)o2)c(N2CCCCC2)c1
IC50 [1]: 0.071 µM

Further lines, with some results ahead:

Cmax [2]: 454 ng/mL
Vd [3]: 11.4 L/kg
bioavailability [4]: 39%
half-life [5]: 1.63 h
SMILES: CC1CCN(c2cc(N3CCN(C)CC3)ccc2NC(=O)c2ccc(C#N)o2)CC1
IC50 (Macrophage): 0.002 µM

IC50 [1]: 0.0063 µM
SMILES: CN1CCN(c2ccc(NC(=O)c3ccc(C#N)o3)c(N3CCCC(F)C3)c2)CC1 (configuration not stated)

IC50 [1]: > 0.06 µM
SMILES: CN1CCN(c2ccc(NC(=O)c3ccc(C#N)o3)c(N3CCCCC3=O)c2)CC1
IC50 (Macrophage): > 10 µM

IC50 [6]: 0.011 µM
IC50 [7]: 0.0035 µM
Cmax [2]: 853 ng/mL
Vd [3]: 5.63 L/kg
bioavailability [4]: 45%
half-life [5]: 4.07 h
SMILES: CC1CCN(c2cc(N3CCN(C)CC3)ccc2NC(=O)c2cc(C#N)c[nH]2)CC1
Activity (Mus musculus [8]): 65%
Activity (Mus musculus [9]): 80%
Activity (Mus musculus [10]): 35%
Activity (Mus musculus [11]): 80%

IC50 [1]: 0.001 µM
SMILES: CC1CCN(c2cc(N3CCNCC3)ccc2NC(=O)c2cc(C#N)c[nH]2)CC1

IC50 [1]: 0.0009 µM
SMILES: CC1CCN(c2cc(N3CCN(S(C)(=O)=O)CC3)ccc2NC(=O)c2ccc(C#N)o2)CC1

IC50 [1]: 0.017 µM
SMILES: N#Cc1ccc(C(=O)Nc2ccc(N3CCCCC3)cc2N2CCCCC2)o1

Cmax [2]: 386 ng/mL
Vd [3]: 7.97 L/kg
bioavailability [4]: 32%
half-life [5]: 1.03 h
SMILES: CN1CCN(c2ccc(NC(=O)c3ccc(C#N)o3)c(N3CCCCC3)c2)CC1
IC50 (Macrophage): 0.005 µM

IC50 [1]: 0.063 µM
SMILES: N#Cc1ccc(C(=O)Nc2ccc(F)cc2N2CCCCC2)o1
